Test results: patent US20100278730A1, “Non-Invasive Molecular Imaging of Cellular Histone Deacetylase Substrate Using Magnetic Resonance Spectroscopy (MRS) or Positron Emission Tomography (PET)” (priority 2007, published 2010)

Legend:
[1] = tested on: HDACs 1-11; assay: HDAC fluorimetric assay; format: biochemical; conditions: for histone deacetylase activity in the presence of the substrate: FIG. 21, BPS#3 as control
Method: Material: Assay buffer, Assay developer, HDAC substrate
(§1) Source: BPS Bioscience, Inc.
Add reaction mixtures to low binding black plate. These include: HDAC assay buffer, Bovine serum albumin solution, HDAC substrate, and HDAC enzymes.
Incubate at 37° C. for 30 minutes.
(§2) Stop the reaction by addition of HDAC Assay developer (2×) and incubate plate at room temperature for 15 minutes.
(§3) Read sample in a microtiter-plate reading fluorimeter at excitation wavelength in the range of 350-380 nm and detect in emission range of 440-460 nm.

[2] = tested on: sirtuins 1-5; assay: Sirtuin fluorimetric assay; format: biochemical
Method: Sirtuin Fluorimetric Assay
Material: substrate available from manufacturer
as §1
Add reaction mixtures to low binding black plate. These include: Sirtuin, HDAC assay buffer, Bovine serum albumin solution, NAD+ solution and Sirtuin substrate.
Incubate at 37° C. for 30 minutes
as §2, §3

[3] = tested on: MDA-MB435 human breast carcinoma cells; assay: In vitro uptake study of [18F]-FAHA in human breast carcinoma cell line; format: cell-based
Method: MDA-MB435 human breast carcinoma cells were grown into flasks with D-MEM/F-12 medium supplemented with 10% FBS and antibiotics at 37° C. in humidified atmosphere with 5% CO2. Cells were kept in the log phase proliferative activity. 5×10^6 of cells in 15 mL of medium were distributed into each tissue culture dish and were incubated at least for 24 hours.
Next day, culture medium was replaced to fresh medium again and was incubated for 3 hours. Then […] of [^18F]-FAHA in […] of saline was added to each dish followed by incubation for 5, 10, 15, 30, 60, and 120 min. At each time point, cells were scraped and were centrifuged at 3,000 rpm for 1 min. After centrifugation, […] of supernatant medium and cells were weighed and their radioactivity measured using a gamma counter. Then the ratio of radioactivity between 1 gram of cells and 1 gram of medium was calculated.
For an inhibition study, cells were incubated in medium with […] of SAHA from 1 hour before adding [^18F]-FAHA.

[4] = tested on: MB435 tumor xenografts; assay: PET of [18F]-FAHA in MB435 tumor xenograft-bearing nude rats (second Example 4); format: in vivo, rat
Method: Methods: [^18F]-FAHA was synthesized with high specific activity according to a method developed at M. D. Anderson Cancer Center. Human breast cancer cells, cell line MB435, grown as described in Example 3, were used to grow tumor xenografts in nude rats. Ten million cancer cells were injected subcutaneously in the neck area of six nude rats. When tumors were 1 cm in diameter, animals were anesthetized, injected with [^18F]-FAHA (37 MBq) and PET imaging was performed (dynamic) up to 60 min post-injection. Two days after the initial imaging, another PET imaging with [^18F]-FAHA was performed using a […] (SAHA). The animals were given SAHA (50 mg/kg) intraperitoneally 1 hour prior to injection of the radiotracer.

[5] = tested on: MB435 human breast carcinoma tumor; assay: PET of [18F]-FAHA in MB435 carcinoma-bearing nu/nu rats, with Gjedde-Patlak analysis (Example 5); format: in vivo, rat
Method: MB435 human breast carcinoma cells were grown as described in Example 3, above. About 10×10^6 MB435 cells were injected subcutaneously in female nu/nu rat. When tumor size was 15 mm in diameter, PET imaging studies with [^18F]-FAHA were conducted in five rats using microPET R4 (Concorde). The animals were injected intravenously with […] (1mCi) of [^18F]-FAHA and dynamic scanning (0-60 min) was performed. During the imaging session the rats were anesthetized with 2.0 vol % isoflurane/oxygen inhalation and continuously heated with a heating lamp.
Two days after the initial study, another [^18F]-FAHA PET imaging with an […] (SAHA) was performed. The animals were given SAHA (100 mg/kg) intraperitoneally 1 hour prior to injection of the [^18F]-FAHA.
Both a Gjedde-Patlak plot and a Logan plot were taken. […] The linearity of the plot was checked and a plasma/reference region used as an input. […]

[6] = tested on: HDAC activity in rat brain; assay: PET imaging of HDAC activity in rat brain using [18F]-FAHA (Example 6); format: in vivo
Method: Methods: [^18F]-FAHA was synthesized according to the methods developed in our laboratory in high specific activity. Imaging studies with [^18F]-FAHA were conducted in five rats using a PET scanner under isoflurane inhalation anesthesia. The animals were injected intravenously with 37 MBq of [^18F]-FAHA and dynamic scanning PET (0-60 min) was performed. During the imaging session, the rats were anesthetized with 1-1.5 vol % isoflurane/oxygen inhalation and continuously heated with a heating lamp. Two days after the initial study, another PET imaging was performed with [^18F]-FAHA using an […] (SAHA). Each animal was given SAHA (50 mg/kg), intraperitoneally 1 hour prior to injection of the [^18F]-FAHA.
In Table 6, “baseline” refers to brain uptake of FAHA without blocking by SAHA.

[7] = 30 min post-injection, with SAHA 50 mg/kg i.p. 1 hour prior
[8] = 30 min post-injection, without SAHA
[9] = 60 min post-injection, with SAHA 50 mg/kg i.p. 1 hour prior
[10] = 60 min post-injection, without SAHA
[11] = during 60 min post-injection, without SAHA
[12] = 5 min post-injection, without SAHA

Q: Which “histone deacetylase activity in the presence of the substrate” value (shortened to “histone deacetylase activity”) [1] does the source give for `O=C(Cc1ccccc1)NCCCCCC(=O)Nc1ccccc1` [PhAHA, 6-(phenylacetamido)-1-hexanoicanilide] here?
A: inhibited the activity of all HDACs

Q: What about the “qualitative rank of the specificity of various sirtuins (and HDAC-3) for the substrate” value [2] of the same compound?
A: Sirt-2 >>Sirt-3>Sirt-4>Sirt-5>Sirt-1

Q: With `O=C(CCCCCNC(=O)C(F)(F)F)Nc1ccccc1` [3FAHA, 6-(trifluoroacetamido)-1-hexanoicanilide] as the compound, how does the “qualitative rank of the specificity of various HDACs for the substrate” value [1] read?
A: HDAC-9>HDAC-7>HDAC-5>HDAC-8>HDAC-4>HDAC-11

Q: `O=C(C[18F])NCCCCCC(=O)Nc1ccccc1` [[^18F]-FAHA, 6-([^18F]-fluoroacetamide)-1-hexanoicanilide] was tested. Which “ratio of radioactivity between 1 gram of cells and 1 gram of medium” value (“ratio … of medium” below) ([3]; Baseline, 5 min) did it give?
A: 1.95 +/− 0.13

Q: What about the “ratio … of medium” value ([3]; Baseline, 10 min) of the same compound?
A: 2.09 +/− 0.15

Q: What about the “ratio … of medium” value ([3]; Baseline, 15 min) of the same compound?
A: 2.11 +/− 0.12

Q: What about the “ratio … of medium” value ([3]; Baseline, 30 min) of the same compound?
A: 2.02 +/− 0.11

Q: What about the “ratio … of medium” value ([3]; Baseline, 60 min) of the same compound?
A: 1.84 +/− 0.14

Q: And the “ratio … of medium” value ([3]; Baseline, 120 min)?
A: 1.38 +/− 0.12

Q: What about the “ratio … of medium” value ([3]; Inhibition: 10 mM of SAHA from 1 hour before [18F]-FAHA, 5 min) of the same compound?
A: 1.16 +/− 0.03

Q: What about the “ratio … of medium” value ([3]; Inhibition: 10 mM of SAHA from 1 hour before [18F]-FAHA, 10 min) of the same compound?
A: 1.16 +/− 0.01

Q: And the “ratio … of medium” value ([3]; Inhibition: 10 mM of SAHA from 1 hour before [18F]-FAHA, 15 min)?
A: 1.16 +/− 0.03

Q: And the “ratio … of medium” value ([3]; Inhibition: 10 mM of SAHA from 1 hour before [18F]-FAHA, 30 min)?
A: 1.16 +/− 0.04

Q: And the “ratio … of medium” value ([3]; Inhibition: 10 mM of SAHA from 1 hour before [18F]-FAHA, 60 min)?
A: 1.15 +/− 0.01

Q: What about the “ratio … of medium” value ([3]; Inhibition: 10 mM of SAHA from 1 hour before [18F]-FAHA, 120 min) of the same compound?
A: 1.13 +/− 0.02

Q: What about the Tumor uptake [4, 7] of the same compound?
A: 0.70 ± 0.04 % ID/g

Q: And the “tumor-to-muscle (T/M) ratio” value [4, 7]?
A: 1.52 ± 0.13

Q: What about the Tumor uptake [4, 8] of the same compound?
A: 0.78 ± 0.13 % ID/g

Q: What about the “tumor-to-muscle (T/M) ratio” value [4, 8] of the same compound?
A: 1.80 ± 0.17

Q: And the Tumor uptake [4, 9]?
A: 0.71 ± 0.02 % ID/g

Q: What about the “tumor-to-muscle (T/M) ratio” value [4, 9] of the same compound?
A: 1.64 ± 0.10

Q: What about the Tumor uptake [4, 10] of the same compound?
A: 0.79 ± 0.13 % ID/g

Q: What about the “tumor-to-muscle (T/M) ratio” value [4, 10] of the same compound?
A: 1.95 ± 0.19

Q: And the tumor uptake achieved [4, 11]?
A: approximately 0.8 % injected dose (ID)/g

Q: And the “tumor-to muscle ratio reached” value [4, 11]?
A: 1.95

Q: What about the Tumor-to-muscle uptake ratio ([5]; Baseline, 5 min) of the same compound?
A: 2.01 +/− 0.57

Q: What about the Tumor-to-muscle uptake ratio ([5]; Baseline, 10 min) of the same compound?
A: 2.05 +/− 0.76

Q: And the Tumor-to-muscle uptake ratio ([5]; Baseline, 15 min)?
A: 2.08 +/− 0.83

Q: What about the Tumor-to-muscle uptake ratio ([5]; Baseline, 30 min) of the same compound?
A: 2.20 +/− 0.95

Q: What about the Tumor-to-muscle uptake ratio ([5]; Baseline, 60 min) of the same compound?
A: 2.38 +/− 1.11

Q: And the Tumor-to-muscle uptake ratio ([5]; Inhibition: SAHA 100 mg/kg i.p. 1 hour prior, 5 min)?
A: 1.43 +/− 0.15

Q: What about the Tumor-to-muscle uptake ratio ([5]; Inhibition: SAHA 100 mg/kg i.p. 1 hour prior, 10 min) of the same compound?
A: 1.50 +/− 0.15

Q: What about the Tumor-to-muscle uptake ratio ([5]; Inhibition: SAHA 100 mg/kg i.p. 1 hour prior, 15 min) of the same compound?
A: 1.46 +/− 0.16

Q: What about the Tumor-to-muscle uptake ratio ([5]; Inhibition: SAHA 100 mg/kg i.p. 1 hour prior, 30 min) of the same compound?
A: 1.47 +/− 0.12

Q: And the Tumor-to-muscle uptake ratio ([5]; Inhibition: SAHA 100 mg/kg i.p. 1 hour prior, 60 min)?
A: 1.47 +/− 0.11

Q: And the Brain uptake ([6]; 5 min post-injection, with SAHA 50 mg/kg i.p. 1 hour prior)?
A: 0.33 ± 0.05 % ID/g

Q: What about the Brain uptake [6, 12] of the same compound?
A: 0.44 ± 0.03 % ID/g

Q: What about the “brain-to-muscle (B/M) ratio” value [6, 12] of the same compound?
A: 2.56 ± 0.33

Q: And the Brain uptake [6, 9]?
A: 0.23 ± 0.04 % ID/g

Q: And the “brain-to-muscle (B/M) ratio” value [6, 9]?
A: 1.03 ± 0.08

Q: What about the Brain uptake [6, 10] of the same compound?
A: 0.40 ± 0.03 % ID/g

Q: What about the “brain-to-muscle (B/M) ratio” value [6, 10] of the same compound?
A: 2.10 ± 0.63

Q: And the “brain-to muscle ratio reached” value ([6]; at 5 min post-injection, without SAHA)?
A: 1.95

Q: What about the brain uptake reached ([6]; without SAHA) of the same compound?
A: 0.44 % injected dose/g

Q: How did the “histone deacetylase activity” value [1] turn out when `CC(C)CC(=O)NCCCCCC(=O)Nc1ccccc1` [Iso-PAHA, 6-(isopropylacetamido)-1-hexanoicanilide] was run?
A: inhibited the activity of all HDACs

Q: What about the “qualitative rank of the specificity of various sirtuins (and HDAC-3) for the substrate” value [2] of the same compound?
A: Sirt-2>Sirt-5>Sirt-4>Sirt-3>Sirt-1

Q: With `CCCC(=O)NCCCCCC(=O)Nc1ccccc1` [PAHA, 6-(ethylacetamido)-1-hexanoicanilide] as the compound, how does the “histone deacetylase activity” value [1] read?
A: inhibited the activity of all HDACs

Q: And the “qualitative rank of the specificity of various sirtuins (and HDAC-3) for the substrate” value [2]?
A: Sirt-2>Sirt-5>Sirt-4>Sirt-3>Sirt-1 >>HDAC-3

Q: How did the “qualitative rank of the specificity of various HDACs for the substrate” value [1] turn out when `O=C(CF)NCCCCCC(=O)Nc1ccccc1` [FAHA, 6-(fluoroacetamido)-1-hexanoicanilide] was run?
A: HDAC-9>HDAC-5>HDAC-8>HDAC-4>HDAC-6>HDAC-1
